“Also recorded” adds a separate entry of the source.
System: asthma (attributed by the author to a brain tumor)
Assay: Self-treatment of the inventor's asthma by repeated deep inhalation of evaporated free base cocain
Conditions: inventor's self-report

COC(=O)[C@H]1[C@@H](OC(=O)c2ccccc2)C[C@@H]2CC[C@H]1N2C [cocain]
Outcome on asthma / asthma attacks (one person, evaporated free base piece about 1/10 gram inhaled once per half hour, 32 sessions over 16 hours, outcome realized 4 months later): effected the cure of my asthma; also recorded: not getting any more asthma attacks
Time until the metabolic use of one inhaled dose came to an end (session duration) (one full deep breath of evaporated free base cocain per session): approximately one half

From patent US20050080103A1, “Procedure for asthmatic, and other non-invasive surgery for brain tumor cures” (priority 2003, published 2005)
